PubChem BioAssay AID504479 (NMMLSC, 2011)
Active and inactive are the calls of the source.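 The calls were made as follows: active = GFP ratio vs DMSO below 0.65 in a strain, using the primary screen cutoff set for that strain's protein target; inactive = the rest.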

Experiments:
Test in all cases: GFP reporter expression in TORC1-bypass yeast, mechanism study for yeast TOR pathway modulator project, S. cerevisiae, TORC1 bypass vs wild-type strains (AID 504479)
Conditions in all cases: fluorescence ratio vs DMSO, at 10 µM
YKL103C = tested on: YKL103C
YCL025C = tested on: YCL025C
YNL142W = tested on: YNL142W
YBR084C-A = tested on: YBR084C-A
BY4741 = tested on: BY4741
YCR005C = tested on: YCR005C
[1] = LAP4-GFP in TORC1 bypass strain, stronger effect = higher value
[2] = AGP1-GFP in TORC1 bypass strain, stronger effect = higher value
[3] = MEP2-GFP in TORC1 bypass strain, stronger effect = higher value
[4] = RPL19A-GFP in TORC1 bypass strain, stronger effect = lower value
[5] = CIT2-GFP in TORC1 bypass strain, stronger effect = higher value

SMILES | GFP ratio vs DMSO (YKL103C; [1]) | GFP ratio vs DMSO (YKL103C) | GFP ratio vs DMSO (YCL025C; [2]) | GFP ratio vs DMSO (YCL025C) | GFP ratio vs DMSO (YNL142W; [3]) | GFP ratio vs DMSO (YNL142W) | GFP ratio vs DMSO (YBR084C-A; [4]) | GFP ratio vs DMSO (YBR084C-A) | GFP ratio vs DMSO (BY4741) | GFP ratio vs DMSO (YCR005C; [5]) | GFP ratio vs DMSO (YCR005C)
CCSc1nnc(NC(=O)c2ccccn2)s1 | 1.14 | 1.2 (inactive) | 0.987 | 0.979 (inactive) | 1.06 | 1.01 (inactive) | 0.97 | 0.972 (inactive) | 0.875 (inactive) | 0.867 | 0.907 (inactive)
O=C1ON=C(c2ccccc2)/C1=C\c1ccco1 | 1.26 | 1.97 | 0.759 | 1.01 (inactive) | 0.993 | 1.1 (inactive) | 0.897 | 0.947 (inactive) | 0.875 (inactive) | 0.826 | 1.1 (inactive)
O=C(OCC(=O)N1CCN(C(=O)c2ccco2)CC1)c1cc(-c2cccc(Br)c2)nc2ccccc12 | 0.965 | 1.37 (inactive) | 1.08 | 1.2 (inactive) | 1.01 | 1.09 (inactive) | 0.991 | 0.79 (inactive) | 0.833 (inactive) | 0.954 | 1.19 (inactive)
O=[N+]([O-])c1cc(Cl)c2cccnc2c1O | 1.17 | 1.52 | 0.738 | 0.999 (inactive) | 0.964 | 0.937 (inactive) | 0.937 | 1.04 (inactive) | 0.755 (inactive) | 0.67 | 0.937 (inactive)
c1ccc(-c2cccc(-c3ccccn3)n2)nc1 | 1.2 | 1.5 | 0.927 | 0.984 (inactive) | 1 | 0.847 (inactive) | 0.963 | 0.926 (inactive) | 0.833 (inactive) | 0.688 | 0.683 (inactive)
CC(C)(C)C(=O)C(Cl)C(=O)Nc1ccccc1 (stereo unspecified) | 1.5 | 2.76 | 0.833 | 1.2 (inactive) | 0.969 | 1.24 (inactive) | 0.997 | 0.885 (inactive) | 0.941 (inactive) | 1.58 | 1.65
O=C(Oc1ccnc2cc(Cl)ccc12)N1CCCCCC1 | 0.997 | 1.15 (inactive) | 1.12 | 1.78 | 0.897 | 1.96 | 0.82 | 1.19 (inactive) | 1 (inactive) | 0.708 | 0.635 (inactive)
Cc1ccc(/C=C2/C(=O)ON=C2c2ccccc2)o1 | 1.15 | 1.99 | 0.642 | 0.87 (inactive) | 1.21 | 1.23 (inactive) | 0.962 | 1 (inactive) | 0.941 (inactive) | 0.898 | 1.23 (inactive)
COc1ccc(C(=O)NNC(=S)NC(=O)/C=C/c2cccs2)cc1 | 1.16 | 1.72 | 0.916 | 1.18 (inactive) | 1 | 1.15 (inactive) | 1.04 | 1.27 (inactive) | 1.24 (inactive) | 0.971 | 1.2 (inactive)
O=C(Oc1c(Cl)cc(Cl)c2cccnc12)c1ccco1 | 1.19 | 1.78 | 0.699 | 0.897 (inactive) | 0.959 | 1.07 (inactive) | 1.29 | 1.31 (inactive) | 1.18 (inactive) | 0.81 | 0.971 (inactive)
Cc1ccc(C(c2cc(Cl)c3cccnc3c2O)N2CCN(C)CC2)cc1 (stereo unspecified) | 1.23 | 1.63 | 0.652 | 0.76 (inactive) | 1.03 | 0.862 (inactive) | 0.949 | 0.938 (inactive) | 0.736 (inactive) | 0.583 | 0.808 (inactive)
O=C(Oc1c(Cl)cc(Cl)c2cccnc12)c1cccc([N+](=O)[O-])c1 | 1.15 | 1.68 | 0.717 | 0.875 (inactive) | 1.01 | 0.95 (inactive) | 1.12 | 1.18 (inactive) | 0.774 (inactive) | 0.791 | 1.07 (inactive)
Cc1ccc(C2=NOC(=O)/C2=C\c2ccc(C)o2)cc1 | 0.971 | 1.52 | 0.701 | 0.907 (inactive) | 1.49 | 1.24 (inactive) | 0.949 | 1.01 (inactive) | 1.74 (inactive) | 1.1 | 1.24 (inactive)
O=[N+]([O-])c1ccc(O)c2ncccc12 | 1.88 | 3.01 | 0.99 | 1.14 (inactive) | 1.06 | 1.21 (inactive) | 1.18 | 1.23 (inactive) | 1.4 (inactive) | 0.748 | 1.27 (inactive)
CCOC(=O)c1c(C)oc2c1c(C(c1cccnc1)N1CCOCC1)c(O)c1ccccc12 (stereo unspecified) | 1.21 | 2.09 | 0.642 | 0.972 (inactive) | 1.08 | 1.27 (inactive) | 1.1 | 0.914 (inactive) | 1.09 (inactive) | 0.839 | 1.12 (inactive)
CC1=NN(c2ccccc2)C(=O)C1C(c1ccccc1[N+](=O)[O-])C(C#N)C#N (stereo unspecified) | 1.44 | 2.26 | 0.682 | 0.947 (inactive) | 0.948 | 1.03 (inactive) | 1.04 | 1.09 (inactive) | 0.941 (inactive) | 1.15 | 1.13 (inactive)
COc1ccc([N+](=O)[O-])c(S(=O)(=O)c2ccccc2)n1 | 1.33 | 1.97 | 0.971 | 1.14 (inactive) | 0.877 | 1.03 (inactive) | 0.924 | 0.967 (inactive) | 0.896 (inactive) | 0.862 | 0.792 (inactive)
Cc1ccc(S(=O)(=O)c2ncccc2[N+](=O)[O-])cc1 | 1.5 | 1.82 | 0.888 | 0.84 (inactive) | 1.01 | 0.788 (inactive) | 0.99 | 1.04 (inactive) | 1.09 (inactive) | 0.847 | 0.688 (inactive)
N/C(Cc1ccc(Cl)cc1)=N\OC(=O)c1cccc2ccccc12 | 0.525 | 1.24 (inactive) | 0.679 | 0.833 (inactive) | 1.05 | 1.23 (inactive) | 0.818 | 0.76 (inactive) | 1.38 (inactive) | 0.748 | 2.21
O=C(NC(=S)NNC(=O)c1cnccn1)c1ccc(F)cc1 | 1.35 | 1.64 | 0.606 | 0.808 (inactive) | 0.971 | 1.07 (inactive) | 0.827 | 0.877 (inactive) | 0.925 (inactive) | 0.691 | 0.716 (inactive)
Cc1ccc(S(=O)(=O)c2ccc([N+](=O)[O-])cn2)cc1 | 1.67 | 2.26 | 0.813 | 1.11 (inactive) | 0.948 | 1.29 (inactive) | 0.938 | 0.929 (inactive) | 0.941 (inactive) | 0.861 | 1.05 (inactive)
